Structures can show the parent of a compound that is named as a salt. The source made the active and inactive calls.
Legend:
H4 = assay: Luminescence Cell-Based Dose Response HTS to Identify Activators of 5'UTR Stem-Loop Driven Prion Protein mRNA Translation in H4 Neuroglioblastoma Cells. [Related pubchem assays: 1829 (Project Summary), 1814 (Primary HTS)]; type: functional; settings: Homo sapiens
Coagulation factor XII = biological target: T1, Coagulation factor XII (Homo sapiens, UniProt P00748); type: functional;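 further: activated factor XIIa alpha cleaving a fluorogenic AMC peptide substrate; inhibitor potency from loss of enzyme activity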
T1 sequence (P00748 whole entry): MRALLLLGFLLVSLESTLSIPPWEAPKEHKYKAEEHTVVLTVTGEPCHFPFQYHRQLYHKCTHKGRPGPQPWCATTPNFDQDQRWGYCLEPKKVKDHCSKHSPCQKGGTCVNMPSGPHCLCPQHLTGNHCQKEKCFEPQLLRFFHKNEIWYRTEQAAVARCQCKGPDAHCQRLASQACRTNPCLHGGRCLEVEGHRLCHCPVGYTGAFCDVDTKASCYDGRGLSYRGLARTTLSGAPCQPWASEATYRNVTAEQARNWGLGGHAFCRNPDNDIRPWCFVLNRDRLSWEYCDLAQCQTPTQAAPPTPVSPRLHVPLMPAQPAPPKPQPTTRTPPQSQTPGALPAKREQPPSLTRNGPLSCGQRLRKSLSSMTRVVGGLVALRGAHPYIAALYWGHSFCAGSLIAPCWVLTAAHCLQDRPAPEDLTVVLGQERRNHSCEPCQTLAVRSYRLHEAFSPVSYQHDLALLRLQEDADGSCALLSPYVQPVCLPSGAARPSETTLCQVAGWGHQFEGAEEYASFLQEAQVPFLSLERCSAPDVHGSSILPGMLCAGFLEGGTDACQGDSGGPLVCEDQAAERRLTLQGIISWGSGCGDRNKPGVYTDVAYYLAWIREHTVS

[1] = cytotoxicity toward NIH3T3 fibroblasts, dose response, counter-screen, cell-based, ATP luminescence, mouse fibroblasts (AID 2010); type: functional;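 further: cells exposed to compound for about 90 hours before reading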
[2] = Luminescence Cell-Based Dose Confirmation HTS to Identify Activators of 5'UTR Stem-Loop Driven Alpha-Synuclein mRNA Translation in H4 Neuroglioblastoma Cells. [Related pubchem assays: 1829 (Project Summary), 1814 (Primary HTS)]; type: functional
Protein skinhead-1 = biological target: T2, Protein skinhead-1 (Caenorhabditis elegans, UniProt P34707); type: functional
T2 sequence (P34707 whole entry): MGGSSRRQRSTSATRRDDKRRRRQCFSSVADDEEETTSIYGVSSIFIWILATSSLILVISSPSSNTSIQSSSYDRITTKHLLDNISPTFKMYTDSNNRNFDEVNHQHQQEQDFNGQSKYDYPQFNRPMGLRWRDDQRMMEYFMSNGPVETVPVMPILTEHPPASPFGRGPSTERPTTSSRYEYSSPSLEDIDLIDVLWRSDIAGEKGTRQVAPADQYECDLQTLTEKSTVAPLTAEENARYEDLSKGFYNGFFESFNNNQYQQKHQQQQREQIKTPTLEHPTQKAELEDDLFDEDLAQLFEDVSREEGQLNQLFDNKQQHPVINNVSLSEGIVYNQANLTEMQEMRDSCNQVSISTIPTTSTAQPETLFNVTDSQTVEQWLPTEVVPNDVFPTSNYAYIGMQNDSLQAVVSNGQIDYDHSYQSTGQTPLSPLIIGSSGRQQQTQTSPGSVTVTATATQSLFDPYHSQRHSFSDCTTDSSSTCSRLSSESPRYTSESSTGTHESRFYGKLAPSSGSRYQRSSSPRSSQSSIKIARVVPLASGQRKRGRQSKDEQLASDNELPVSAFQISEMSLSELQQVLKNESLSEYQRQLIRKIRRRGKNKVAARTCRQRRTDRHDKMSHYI

[3] = inhibitors of intracellular T. cruzi replication, confirmation, NIH3T3 host cells, beta-gal luminescence (AID 2044); type: functional, cell-based;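 further: intracellular parasites grown in NIH/3T3 mouse fibroblasts as host cells; luminescent beta-galactosidase reporter signal from transgenic T. cruzi replicating inside host cells; inhibitors lower the luminescence signal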
[4] = Luminescence Cell-Based Dose Response HTS to Identify Activators of Luciferase Translation or Activity in H4 […] Cells. [Related pubchem assays: 1829 (Project Summary), 1814 (Primary HTS)]; type: functional
Vero [5] = assay: cells; type: functional; settings: Chlorocebus sabaeus
Vero [6] = assay: cells; type: functional, cell-based; settings: Chlorocebus sabaeus
[7] = HEp-2 cell cytotoxicity, dose response, cytotoxicity control for RSV inhibitor project, HTS (AID 2410); type: functional; settings: human respiratory syncytial virus
Cytochrome P450 3A4 = Cytochrome P450 3A4 (Homo sapiens, UniProt P08684);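 further: CYP3A4 tested as one member of a cytochrome P450 panel screen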
[8] = biological target: Peroxisome proliferator-activated receptor gamma/Nuclear receptor coactivator 3 (Homo sapiens, UniProt P37231); assay: TR-FRET dose response biochemical High Throughput Screening assay for agonists of the steroid receptor coactivator 3 (SRC-3) recruitment by the peroxisome proliferator-activated receptor gamma (PPAR gamma): non-selective agonists. [Related pubchem assays: 1301 (Confirmation screen.), 1048 (Primary screen.)]; type: functional
[9] = biological target: Peroxisome proliferator-activated receptor gamma/Nuclear receptor coactivator 2 (Homo sapiens, UniProt P37231); assay: TR-FRET dose response biochemical High Throughput Screening assay for agonists of the steroid receptor coactivator 2 (SRC-2) recruitment by the peroxisome proliferator-activated receptor gamma (PPAR gamma): non-selective agonists. [Related pubchem assays: 1297, 1032 ]; type: functional
[10] = biological target: Peroxisome proliferator-activated receptor gamma/Nuclear receptor coactivator 1 (Homo sapiens, UniProt P37231); assay: TR-FRET dose response biochemical High Throughput Screening assay for agonists of the steroid receptor coactivator 1 (SRC-1) recruitment by the peroxisome proliferator-activated receptor gamma (PPAR gamma): non-selective agonists. [Related pubchem assays (depositor defined):AID1300, AID1808, AID504735, AID631]; type: protein assay
[11] = biological target: T3, Replicative DNA helicase DnaB (Mycobacterium tuberculosis, UniProt P9WMR3); assay: DnaB intein splicing inhibitors, dose response, biochemical, cell-free fluorescence (AID 449749); type: functional
T3 sequence (P9WMR3 whole entry): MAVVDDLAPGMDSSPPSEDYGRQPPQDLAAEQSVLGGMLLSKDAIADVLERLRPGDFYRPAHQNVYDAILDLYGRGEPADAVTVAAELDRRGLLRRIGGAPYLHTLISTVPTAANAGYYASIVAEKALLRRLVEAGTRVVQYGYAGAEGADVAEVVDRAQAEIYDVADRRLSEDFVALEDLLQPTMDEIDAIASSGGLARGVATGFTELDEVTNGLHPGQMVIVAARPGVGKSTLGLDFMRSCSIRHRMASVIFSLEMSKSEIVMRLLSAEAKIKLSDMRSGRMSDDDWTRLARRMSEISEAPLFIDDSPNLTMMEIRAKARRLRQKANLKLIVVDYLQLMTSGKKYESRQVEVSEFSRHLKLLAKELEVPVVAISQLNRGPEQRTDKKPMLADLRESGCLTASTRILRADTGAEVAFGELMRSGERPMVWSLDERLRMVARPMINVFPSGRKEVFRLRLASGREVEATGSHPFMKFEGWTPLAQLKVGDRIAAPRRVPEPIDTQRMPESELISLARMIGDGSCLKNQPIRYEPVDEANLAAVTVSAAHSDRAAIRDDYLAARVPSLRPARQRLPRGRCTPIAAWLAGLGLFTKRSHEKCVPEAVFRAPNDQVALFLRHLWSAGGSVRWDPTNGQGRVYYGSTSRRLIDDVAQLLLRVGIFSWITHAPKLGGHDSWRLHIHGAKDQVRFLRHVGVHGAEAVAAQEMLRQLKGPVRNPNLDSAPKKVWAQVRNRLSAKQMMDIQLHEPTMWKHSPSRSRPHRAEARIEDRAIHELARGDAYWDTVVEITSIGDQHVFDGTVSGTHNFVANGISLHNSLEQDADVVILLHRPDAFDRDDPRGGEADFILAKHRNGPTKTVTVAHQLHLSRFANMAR

[12] = Luminescence Cell-Based Dose Response HTS to Identify Inhibitors of 5'UTR Stem-Loop Driven Prion Protein mRNA Translation in H4 Neuroglioblastoma Cells. [Related pubchem assays: 1827 (Project Summary), 1813 (Primary HTS)]; type: functional
[13] = inhibitors of firefly luciferase expression or activity, dose response, H4 neuroglioma cells, luminescence (AID 1990); type: functional, cell-based
Protein RecA = biological target: T4, Protein RecA (Mycobacterium tuberculosis, UniProt P9WHJ3); assay: Fluorescence Cell-Free Homogeneous Dose Retest to Identify Inhibitors of RecA-Intein Splicing Activity. [Related pubchem assays (depositor defined):AID2097, AID2223, AID489010, AID492950]; type: functional
T4 sequence (P9WHJ3 whole entry): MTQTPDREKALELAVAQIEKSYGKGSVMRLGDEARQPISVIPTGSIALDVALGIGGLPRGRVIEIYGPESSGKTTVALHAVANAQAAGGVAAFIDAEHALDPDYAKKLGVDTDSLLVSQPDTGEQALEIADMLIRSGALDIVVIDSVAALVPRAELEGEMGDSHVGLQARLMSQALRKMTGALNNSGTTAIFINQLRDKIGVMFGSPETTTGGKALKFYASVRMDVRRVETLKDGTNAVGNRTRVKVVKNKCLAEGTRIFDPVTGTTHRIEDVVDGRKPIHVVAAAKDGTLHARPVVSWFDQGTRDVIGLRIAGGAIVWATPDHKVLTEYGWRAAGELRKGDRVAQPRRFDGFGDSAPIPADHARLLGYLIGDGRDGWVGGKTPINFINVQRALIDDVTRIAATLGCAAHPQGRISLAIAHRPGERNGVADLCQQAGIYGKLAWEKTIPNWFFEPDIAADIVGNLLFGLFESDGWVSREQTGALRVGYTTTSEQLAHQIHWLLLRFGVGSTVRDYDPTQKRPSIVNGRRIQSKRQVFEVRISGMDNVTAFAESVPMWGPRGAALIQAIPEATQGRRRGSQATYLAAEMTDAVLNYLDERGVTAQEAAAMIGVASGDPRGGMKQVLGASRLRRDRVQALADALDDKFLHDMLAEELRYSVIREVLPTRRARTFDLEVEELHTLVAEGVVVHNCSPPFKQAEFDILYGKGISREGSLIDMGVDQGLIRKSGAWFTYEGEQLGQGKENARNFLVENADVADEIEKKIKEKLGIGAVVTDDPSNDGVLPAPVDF

[14] = inhibitors of SNCA 5'UTR-driven reporter translation, confirmation, H4 neuroglioma cells, luminescence (AID 1988); type: functional, cell-based
[15] = biological target: T5, Microphthalmia-associated transcription factor (Homo sapiens, UniProt O75030); assay: TRPM1 promoter luciferase signal decrease, dose response, MITF inhibitor project, cell-based, SK-MEL-5, cherry-picked, set 3 (AID 493073); type: functional
T5 sequence (O75030 whole entry): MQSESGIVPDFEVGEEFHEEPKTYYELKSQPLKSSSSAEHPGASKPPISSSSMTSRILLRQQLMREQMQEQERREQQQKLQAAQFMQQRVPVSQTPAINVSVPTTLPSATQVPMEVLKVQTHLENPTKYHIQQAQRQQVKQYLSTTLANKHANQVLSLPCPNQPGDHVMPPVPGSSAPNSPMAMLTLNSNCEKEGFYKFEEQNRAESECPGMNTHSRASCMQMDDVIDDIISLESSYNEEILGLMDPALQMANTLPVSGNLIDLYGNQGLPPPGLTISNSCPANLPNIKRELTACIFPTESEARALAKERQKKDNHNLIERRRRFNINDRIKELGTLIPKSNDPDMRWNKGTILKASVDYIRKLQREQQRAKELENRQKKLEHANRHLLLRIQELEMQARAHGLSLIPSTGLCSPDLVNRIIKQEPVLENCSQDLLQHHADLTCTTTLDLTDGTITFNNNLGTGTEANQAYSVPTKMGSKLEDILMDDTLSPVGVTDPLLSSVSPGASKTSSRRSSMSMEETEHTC

[16] = biological target: T6, Ubiquitin-conjugating enzyme E2 N (Homo sapiens, UniProt P61088); type: functional;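 further: Dose-response confirmation in a TR-FRET assay detecting UBC13-driven polyubiquitin chain formation, inhibition measured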
T6 sequence (P61088 whole entry): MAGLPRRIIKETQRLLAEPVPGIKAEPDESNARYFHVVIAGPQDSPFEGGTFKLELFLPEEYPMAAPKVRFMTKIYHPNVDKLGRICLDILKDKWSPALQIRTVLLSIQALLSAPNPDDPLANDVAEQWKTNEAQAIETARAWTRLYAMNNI

[17] = biological target: Voltage-gated inwardly rectifying potassium channel KCNH2 (Homo sapiens, UniProt Q12809); settings: Potency;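 further: confirmatory quantitative high-throughput screen measuring inhibition of hERG channel activity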
Chain of Voltage-gated inwardly rectifying potassium channel KCNH2 (Q12809 whole entry): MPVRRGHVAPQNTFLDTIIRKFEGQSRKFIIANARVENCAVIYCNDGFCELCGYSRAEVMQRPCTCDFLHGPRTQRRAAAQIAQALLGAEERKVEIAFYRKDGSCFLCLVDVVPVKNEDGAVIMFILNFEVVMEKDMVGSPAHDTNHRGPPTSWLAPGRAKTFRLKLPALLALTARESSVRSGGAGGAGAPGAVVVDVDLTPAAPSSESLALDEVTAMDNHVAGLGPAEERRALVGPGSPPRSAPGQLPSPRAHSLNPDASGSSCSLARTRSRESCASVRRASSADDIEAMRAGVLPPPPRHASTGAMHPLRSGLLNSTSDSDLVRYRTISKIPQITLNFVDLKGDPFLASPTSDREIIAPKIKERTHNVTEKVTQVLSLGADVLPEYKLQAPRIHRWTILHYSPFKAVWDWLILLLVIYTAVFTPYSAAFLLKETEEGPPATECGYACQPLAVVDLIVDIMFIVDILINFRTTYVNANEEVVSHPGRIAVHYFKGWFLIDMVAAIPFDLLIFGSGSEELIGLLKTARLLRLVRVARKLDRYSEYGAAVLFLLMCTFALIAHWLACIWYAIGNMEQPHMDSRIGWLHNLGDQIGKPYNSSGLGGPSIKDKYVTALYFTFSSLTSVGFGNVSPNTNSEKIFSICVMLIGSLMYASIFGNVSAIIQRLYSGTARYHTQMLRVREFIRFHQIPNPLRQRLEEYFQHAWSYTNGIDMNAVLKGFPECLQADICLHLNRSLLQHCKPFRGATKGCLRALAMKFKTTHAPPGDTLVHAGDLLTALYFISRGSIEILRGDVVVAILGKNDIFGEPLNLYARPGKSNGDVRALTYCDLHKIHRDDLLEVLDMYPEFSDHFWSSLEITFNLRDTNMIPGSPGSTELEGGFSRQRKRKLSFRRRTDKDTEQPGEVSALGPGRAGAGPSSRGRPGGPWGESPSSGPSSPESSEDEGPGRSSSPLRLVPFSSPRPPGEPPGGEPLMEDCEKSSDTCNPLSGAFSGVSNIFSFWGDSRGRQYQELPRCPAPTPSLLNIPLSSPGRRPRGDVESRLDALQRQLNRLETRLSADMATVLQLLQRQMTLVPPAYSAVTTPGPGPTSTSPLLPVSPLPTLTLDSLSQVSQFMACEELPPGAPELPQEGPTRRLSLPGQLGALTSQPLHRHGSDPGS

Chain of Peroxisome proliferator-activated receptor gamma/Nuclear receptor coactivator 1 (P37231 whole entry): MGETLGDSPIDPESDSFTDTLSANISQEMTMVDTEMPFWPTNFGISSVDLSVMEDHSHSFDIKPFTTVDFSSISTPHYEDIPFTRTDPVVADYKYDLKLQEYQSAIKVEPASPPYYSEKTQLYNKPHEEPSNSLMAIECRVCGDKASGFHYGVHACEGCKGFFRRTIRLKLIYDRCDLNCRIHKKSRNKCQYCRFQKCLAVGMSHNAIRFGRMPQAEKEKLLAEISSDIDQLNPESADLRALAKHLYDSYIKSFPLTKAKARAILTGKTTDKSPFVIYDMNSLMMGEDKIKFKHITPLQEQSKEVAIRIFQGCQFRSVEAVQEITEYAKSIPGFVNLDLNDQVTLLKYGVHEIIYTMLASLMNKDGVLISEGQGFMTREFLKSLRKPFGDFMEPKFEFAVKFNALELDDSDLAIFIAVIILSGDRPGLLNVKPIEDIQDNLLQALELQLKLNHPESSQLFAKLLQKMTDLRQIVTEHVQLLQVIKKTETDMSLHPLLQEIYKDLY
Chain of Peroxisome proliferator-activated receptor gamma/Nuclear receptor coactivator 1 (Q15788 whole entry, further chain): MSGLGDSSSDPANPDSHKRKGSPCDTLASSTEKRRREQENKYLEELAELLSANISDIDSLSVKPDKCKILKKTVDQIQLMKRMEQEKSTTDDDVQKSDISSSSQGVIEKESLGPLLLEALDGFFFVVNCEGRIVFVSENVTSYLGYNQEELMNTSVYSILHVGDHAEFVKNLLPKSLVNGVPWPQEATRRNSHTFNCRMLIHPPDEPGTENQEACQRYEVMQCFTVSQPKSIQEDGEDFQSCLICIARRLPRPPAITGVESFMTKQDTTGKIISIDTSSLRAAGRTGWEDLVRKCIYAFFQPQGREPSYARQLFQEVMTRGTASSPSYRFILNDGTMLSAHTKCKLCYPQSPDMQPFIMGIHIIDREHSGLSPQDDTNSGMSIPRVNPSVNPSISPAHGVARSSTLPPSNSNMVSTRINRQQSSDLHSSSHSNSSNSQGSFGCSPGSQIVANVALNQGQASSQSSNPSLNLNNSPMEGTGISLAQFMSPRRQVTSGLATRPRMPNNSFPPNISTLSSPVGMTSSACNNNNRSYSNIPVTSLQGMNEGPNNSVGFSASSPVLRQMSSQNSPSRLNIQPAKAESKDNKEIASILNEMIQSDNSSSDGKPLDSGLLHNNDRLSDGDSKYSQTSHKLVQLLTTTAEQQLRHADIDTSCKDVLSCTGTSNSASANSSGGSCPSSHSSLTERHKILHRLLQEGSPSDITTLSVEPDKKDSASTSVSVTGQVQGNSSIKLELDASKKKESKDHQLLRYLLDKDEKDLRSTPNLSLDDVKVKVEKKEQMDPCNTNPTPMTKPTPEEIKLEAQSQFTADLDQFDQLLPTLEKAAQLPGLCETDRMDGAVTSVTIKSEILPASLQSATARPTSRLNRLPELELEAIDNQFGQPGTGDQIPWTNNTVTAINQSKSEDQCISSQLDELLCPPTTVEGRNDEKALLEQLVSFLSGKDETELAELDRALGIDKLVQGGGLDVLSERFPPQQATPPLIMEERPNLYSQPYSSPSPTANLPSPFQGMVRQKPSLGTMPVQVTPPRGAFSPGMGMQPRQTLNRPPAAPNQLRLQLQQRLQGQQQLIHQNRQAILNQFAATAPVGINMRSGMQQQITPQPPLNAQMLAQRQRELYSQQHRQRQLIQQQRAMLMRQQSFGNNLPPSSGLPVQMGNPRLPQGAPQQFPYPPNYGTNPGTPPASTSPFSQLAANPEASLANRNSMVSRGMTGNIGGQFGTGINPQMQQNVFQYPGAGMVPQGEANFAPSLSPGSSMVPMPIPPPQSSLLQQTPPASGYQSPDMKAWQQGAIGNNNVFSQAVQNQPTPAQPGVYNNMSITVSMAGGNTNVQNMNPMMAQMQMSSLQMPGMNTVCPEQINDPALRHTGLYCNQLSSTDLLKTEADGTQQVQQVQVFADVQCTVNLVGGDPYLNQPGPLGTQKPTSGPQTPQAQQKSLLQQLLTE
Chain of Peroxisome proliferator-activated receptor gamma/Nuclear receptor coactivator 3 (P37231 whole entry): as the sequence (P37231 whole entry) above
Chain of Peroxisome proliferator-activated receptor gamma/Nuclear receptor coactivator 3 (Q9Y6Q9 whole entry, further chain): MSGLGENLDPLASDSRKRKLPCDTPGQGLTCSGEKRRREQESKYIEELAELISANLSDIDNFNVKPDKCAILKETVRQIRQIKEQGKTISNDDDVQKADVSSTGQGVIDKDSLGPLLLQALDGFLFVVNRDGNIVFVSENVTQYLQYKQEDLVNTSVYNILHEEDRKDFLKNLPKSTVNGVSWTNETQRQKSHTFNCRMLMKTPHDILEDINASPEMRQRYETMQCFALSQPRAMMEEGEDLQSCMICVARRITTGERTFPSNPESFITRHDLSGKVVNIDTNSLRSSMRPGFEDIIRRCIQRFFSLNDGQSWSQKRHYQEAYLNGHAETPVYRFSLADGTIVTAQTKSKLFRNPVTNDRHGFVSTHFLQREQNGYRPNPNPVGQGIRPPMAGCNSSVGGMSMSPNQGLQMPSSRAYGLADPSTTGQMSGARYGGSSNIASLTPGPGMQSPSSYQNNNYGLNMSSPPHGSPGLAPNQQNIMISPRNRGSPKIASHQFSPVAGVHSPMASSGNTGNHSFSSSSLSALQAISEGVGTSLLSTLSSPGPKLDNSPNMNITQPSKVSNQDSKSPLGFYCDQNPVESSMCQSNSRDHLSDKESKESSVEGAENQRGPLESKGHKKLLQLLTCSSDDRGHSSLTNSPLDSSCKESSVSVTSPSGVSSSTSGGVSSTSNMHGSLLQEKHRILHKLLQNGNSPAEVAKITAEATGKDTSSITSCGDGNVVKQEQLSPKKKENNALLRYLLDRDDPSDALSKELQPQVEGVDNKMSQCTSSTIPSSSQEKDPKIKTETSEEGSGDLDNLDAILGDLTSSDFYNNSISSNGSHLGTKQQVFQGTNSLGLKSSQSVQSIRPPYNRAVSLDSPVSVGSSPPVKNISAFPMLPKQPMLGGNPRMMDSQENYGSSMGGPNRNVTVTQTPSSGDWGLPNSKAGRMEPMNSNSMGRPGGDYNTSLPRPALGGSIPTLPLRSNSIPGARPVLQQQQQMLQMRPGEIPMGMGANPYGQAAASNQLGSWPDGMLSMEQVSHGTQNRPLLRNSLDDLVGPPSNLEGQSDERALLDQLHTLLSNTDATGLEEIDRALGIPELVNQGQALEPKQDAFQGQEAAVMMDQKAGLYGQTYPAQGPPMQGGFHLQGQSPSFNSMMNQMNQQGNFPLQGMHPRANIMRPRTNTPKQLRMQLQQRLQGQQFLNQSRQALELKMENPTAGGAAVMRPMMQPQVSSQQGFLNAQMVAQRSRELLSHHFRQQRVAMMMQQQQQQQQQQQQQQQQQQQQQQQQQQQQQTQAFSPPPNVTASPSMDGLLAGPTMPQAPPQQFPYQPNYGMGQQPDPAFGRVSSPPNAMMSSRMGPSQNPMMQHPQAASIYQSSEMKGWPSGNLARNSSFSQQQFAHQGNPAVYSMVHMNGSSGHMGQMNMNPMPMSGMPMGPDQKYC

Structure (SMILES): O=C(Nc1nc(-c2ccc(Cl)s2)cs1)c1cccs1
- EC50 (H4): 5.03 µM (active)
- IC50 (Coagulation factor XII): 23.9 µM (active)
- EC50 [1]: 8.5 µM (active)
- EC50 [2]: 34.3 µM (active)
- IC50 (Protein skinhead-1): 81.2 µM (inactive)
- EC50 [3]: 1.04 µM (active)
- EC50 [4]: 15.1 µM (active)

Structure (SMILES): CCOC(=O)c1c(-c2cccc(C)c2)csc1NC(=O)c1c(-c2ccccc2)noc1C
- IC50 (cells): 9.89 µM (active)
- CC50 (Vero [5]): > 25 µM (active)
- IC50 (Vero [6]): 1.43 µM (active)
- CC50 [7]: 5.17 µM (active)
- AC50 (Cytochrome P450 3A4): 5.62 µM (inconclusive)

Structure (SMILES): Cn1c(=O)cc(SCC(=O)Nc2ccccn2)c2ccccc21
- EC50 [8]: > 79.4 µM (not active)
- EC50 [9]: > 79.4 µM (not active)
- EC50 [10]: > 79.4 µM (inactive)

Structure (SMILES): Cc1cccc(Nc2nc(-c3ccccc3)c(C(=O)Nc3cccnc3)s2)c1
- EC50 [8]: > 79.4 µM (not active)
- EC50 [9]: 7.24 µM (active)
- EC50 [10]: 7.34 µM (active)

Structure (SMILES): O=C1c2ccccc2C(=O)c2c1ncn2-c1ccccc1
- AC50 [11]: 57.3 µM (active)
- EC50 [12]: 15.6 µM (active)
- EC50 [13]: 13.1 µM (active)
- EC50 (Protein RecA): 229 µM (active)
- EC50 [14]: 9.51 µM (active)
- AC50 [15]: 7.33 µM (active)

Structure (SMILES): N=c1n(CC(=O)c2ccc(Br)cc2)c2ccccc2n1Cc1ccccc1
- IC50 [16]: > 20 µM (inactive)
- AC50 [15]: 6.41 µM (active)

Structure (SMILES): CCOc1ccc2nc(N)sc2c1
- AC50 [17]: 28.2 µM (inconclusive)

Structure (SMILES): c1ccc2c(c1)-c1cccc3cccc-2c13 [FLUORANTHENE]
- AC50 [17]: 12.6 µM (inconclusive)

Structure (SMILES): CN1CCC(=C2c3ccccc3CC(=O)c3sccc32)CC1 [KETOTIFEN FUMARATE]
- AC50 [17]: 22.4 µM (inconclusive)

From ChEMBL document CHEMBL1201862, “PubChem BioAssay data set” (2004)
